Measured values: patent publication US20210355129A1, “NOVEL UREA 6,7-DIHYDRO-4H-PYRAZOLO[1,5-A]PYRAZINES ACTIVE AGAINST THE HEPATITIS B VIRUS (HBV)” (AICURIS GMBH & CO. KG, priority 2018, published 2021)

Assays:
HBV = assay: Determination of HBV DNA from the supernatants of HepAD38 cells (anti-HBV activity); conditions: Hepatitis B virus, HePAD38, 144 h, read-out: Cell Activity
[1] = Cell viability assay (AlamarBlue); type: cell-based; conditions: human, HepAD38 cells in the presence of 0.3 μg/ml tetracycline, six days incubation
Experimental: Using the AlamarBlue viability assay cytotoxicity was evaluated in HepAD38 cells in the presence of 0.3 μg/ml tetracycline, which blocks the expression of the HBV genome. Assay condition and plate layout were in analogy to the anti-HBV assay, however other controls were used. On each assay plate six wells containing untreated HepAD38 cells were used as the 100% viability control, and six wells filled with assay medium only were used as 0% viability control. In addition, a geometric concentration series of cycloheximide starting at 60 μM final assay concentration was used as positive control in each experiment. After six days incubation period Alamar Blue Presto cell viability reagent (ThermoFisher, Dreieich) was added in 1/11 dilution to each well of the assay plate. After an incubation for 30 to 45 min at 37° C. the fluorescence signal, which is proportional to the number of living cells, was read using a Tecan Spectrafluor Plus plate reader with an excitation filter 550 nm and emission filter 595 nm, respectively. […] Mean EC50 and CC50 values were used to calculate the selectivity index (SI=CC50/EC50) for each test compound.

Row | Compound | EC50 (HBV) [µM] | CC50 at 6 days [1] [µM]
1 | CN(C(=O)c1cnn2c1CN(C(=O)Nc1ccc(F)c(Cl)c1)CC2)C1(CNCC(F)(F)F)CC1 [Example 13, N5-(3-chloro-4-fluorophenyl)-N3-methyl-N3-(1-{[(2,2,2-trifluoroethyl)amino]methyl}cyclopropyl)-4H,5H,6H,7H-pyrazolo[1,5-a]pyrazine-3,5-dicarboxamide] | < 1 | > 10
2 | CN(C(=O)c1cnn2c1CN(C(=O)Nc1ccc(F)c(Cl)c1)CC2)C1(CCOC(F)F)CCCC1 [Example 15, N5-(3-chloro-4-fluorophenyl) -N3-{1-[2-(difluoromethoxy)ethyl]cyclopentyl}-N3-methyl-4H,5H,6H,7H -pyrazolo [1,5-a]pyrazine-3,5-dicarboxamide] | < 1 | > 10
3 | O=C(Nc1ccc(F)c(Cl)c1)N1CCn2ncc(C(=O)N3CCCOCC34CC4)c2C1 [Example 11, N-(3-chloro-4-fluorophenyl) -3-{8-oxa-4-azaspiro[2.6]nonane-4-carbonyl}-4H,5H,6H,7H-pyrazolo[1,5-a]pyrazine-5-carboxamide] | < 1 | > 10
4 | CN(C(=O)c1cnn2c1CN(C(=O)Nc1ccc(F)c(Cl)c1)CC2)C1(c2ccncc2)CC1 [Example 7, N5-(3-chloro-4-fluorophenyl)-N3-methyl-N3-[1-(pyridin-4-yl)cyclopropyl]-4H,5H,6H,7H-pyrazolo[1,5-a]pyrazine-3,5-dicarboxamide] | < 1 | > 10
5 | O=C(Nc1ccc(F)c(Cl)c1)N1CCn2ncc(C(=O)N(CCO)C3(CO)CC3)c2C1 [Example 10, N5-(3-chloro-4-fluorophenyl)-N3-(2-hydroxyethyl)-N3-[1-(hydroxymethyl)cyclopropyl]-4H,5H,6H,7H-pyrazol [1,5-a]pyrazine-3,5-dicarboxamide] | < 1 | > 10
6 | CCOCC1(N(C)C(=O)c2cnn3c2CN(C(=O)Nc2ccc(F)c(Cl)c2)CC3)CC1 [Example 3, N5-(3-chloro-4-fluorophenyl)-N3-[1-(ethoxymethyl)cyclopropyl]-N3-methyl-4H,5H,6H,7H-pyrazolo[1,5-a]pyrazine-3,5-dicarboxamide] | < 1 | > 10
7 | CN(C(=O)c1cnn2c1CN(C(=O)Nc1ccc(F)c(Cl)c1)CC2)C1(CO)CC1 [Example 9, N5-(3-chloro-4-fluorophenyl)-N3-[1-(hydroxymethyl)cyclopropyl]-N3-methyl-4H,5H,6H,7H-pyrazolo[1,5-a]pyrazine-3,5-dicarboxamide] | < 1 | > 10
8 | COCC1(N(C)C(=O)c2cnn3c2CN(C(=O)Nc2ccc(F)c(Cl)c2)C(C)C3)CC1 (stereo not shown) [Example 1, N5-(3-chloro-4-fluorophenyl)-N3-[1-(methoxymethyl)cyclopropyl]-N3,6-dimethyl-4H,5H,6H,7H-pyrazolo[1,5-a]pyrazine-3,5-dicarboxamide] | < 1 | > 10
9 | CN(C(=O)c1cnn2c1CN(C(=O)Nc1ccc(F)c(Cl)c1)CC2)C1(CCOC(F)F)CCOCC1 [Example 16, N5-(3-chloro-4-fluorophenyl)-N3-{4-[2-(difluoromethoxy)ethyl]oxan-4-yl}-N3-methyl-4H,5H,6H,7H-pyrazolo[1,5-a]pyrazine-3,5-dicarboxamide] | < 1 | > 10
10 | CN(C(=O)c1cnn2c1CN(C(=O)Nc1ccc(F)c(Cl)c1)CC2)C1(c2ncccn2)CC1 [Example 8, N5-(3-chloro-4-fluorophenyl)-N3-methyl-N3-[1-(pyrimidin-2-yl)cyclopropyl]-4H,5H,6H,7H-pyrazolo[1,5-a]pyrazine-3,5-dicarboxamide] | < 1 | > 10
11 | CN(C(=O)c1cnn2c1CN(C(=O)Nc1ccc(F)c(Cl)c1)CC2)C1(COC(F)F)CC1 [Example 4, N5-(3-chloro-4-fluorophenyl)-N3-{1-[(difluoromethoxy)methyl]cyclopropyl}-N3-methyl-4H,5H,6H,7H-pyrazolo[1,5-a]pyrazine-3,5-dicarboxamide] | < 1 | > 10
12 | O=C(Nc1ccc(F)c(Cl)c1)N1CCn2ncc(C(=O)N3CC(F)(F)CC34CC4)c2C1 [Example 5, N-(3-chloro-4-fluorophenyl)-3-{6,6-difluoro-4-azaspiro[2.4]heptane-4-carbonyl}-4H,5H,6H,7H-pyrazolo[1,5-a]pyrazine-5-carboxamide] | < 1 | > 10
13 | O=C(Nc1ccc(F)c(Cl)c1)N1CCn2ncc(C(=O)N3CCOCCC34CC4)c2C1 [Example 12, N-(3-chloro-4-fluorophenyl)-3-{7-oxa-4-azaspiro[2.6]nonane-4-carbonyl}-4H,5H,6H,7H-pyrazolo[1,5-a]pyrazine-5-carboxamide] | < 1 | > 10
14 | CC1Cn2ncc(C(=O)N(C)C3(COC(F)F)CC3)c2CN1C(=O)Nc1ccc(F)c(Cl)c1 (stereo not shown) [Example 6, N5-(3-chloro-4-fluorophenyl)-N3-{1-[(difluoromethoxy)methyl]cyclopropyl}-N3,6-dimethyl-4H,5H,6H,7H-pyrazolo[1,5-a]pyrazine-3,5-dicarboxamide] | < 1 | > 10
15 | CC1Cn2ncc(C(=O)N(C)C3CC3)c2CN1C(=O)Nc1ccc(F)c(Cl)c1 (stereo not shown) [Example 17, N5-(3-chloro-4-fluorophenyl)-N3-cyclopropyl-N3,6-dimethyl-4H,5H,6H,7H -pyrazolo[1,5-a]pyrazine-3,5-dicarboxamide] | < 1 | > 10
16 | CC(C)OCC1(N(C)C(=O)c2cnn3c2CN(C(=O)Nc2ccc(F)c(Cl)c2)CC3)CC1 [Example 2, N5-(3-chloro-4-fluorophenyl)-N3-methyl-N3-{1-[(propan-2-yloxy)methyl]cyclopropyl}-4H,5H,6H,7H-pyrazolo[1,5-a]pyrazine-3,5-dicarboxamide] | < 1 | > 10
17 | CN(C(=O)c1cnn2c1CN(C(=O)Nc1ccc(F)c(Cl)c1)CC2)C1(CCOC(F)F)CCC1 [Example 14, N5-(3-chloro-4-fluorophenyl)-N3-{1-[2-(difluoromethoxy)ethyl]cyclobutyl}-N3-methyl-4H,5H,6H,7H-pyrazolo[1,5-a]pyrazine-3,5-dicarboxamide] | < 1 | > 10
